# Reference: paper PMC6479714, “Multiplex Analysis Platform for Endocrine Disruption Prediction Using Zebrafish” (International Journal of Molecular Sciences, 2019)
# pEC50: −log10 of the molar value.
# Tests used:
# [1] = test system: brain aromatase (cyp19a1b); experiment: cyp19a1b gene expression (qPCR) in exposed zebrafish embryos; format: in vivo, zebrafish (Danio rerio); settings: exposed 48–120 hpf
# Experimental: (§1) Twenty embryos per treatment and replicate were exposed to 3–7 different concentrations of chemical in glass. […] Between 3 and 6 biological replicates were performed per compound and condition in, at least, two independent experiments.
# (§2) At 120 hpf, 20 embryos per condition and replicate were pooled and homogenized in TRIreagent and total RNA extracted following the manufacturer’s protocol. Total RNA concentration was estimated by spectrophotometric absorption at 260 nm in a NanoDrop Spectrophotometer ND-1000 (NanoDrop Technologies; Wilmington, DE, USA). One hundred nanograms of RNA were retrotranscribed to cDNA by reverse transcriptase (Superscript III RT-Enzyme, Invitrogen, Carlsbad, CA, USA) and stored at −20 °C. Aliquots 10-times diluted of cDNA were used to quantify the amounts of specific transcripts in a Lightcycler® 480 system (Roche, Basel, Switzerland) by the SYBR GREEN method. Annealing temperature used in amplification reactions was 60 °C in all cases. […] Relative expression levels were quantified using the ΔΔCt method [82] and ef1a as reference gene [83]
# [2] = test system: thyroid peroxidase (tpo); experiment: tpo gene expression (qPCR) in exposed zebrafish embryos; format: in vivo, zebrafish (Danio rerio); settings: Danio rerio, read-out: EC50 tpo
# Experimental: as §1, §2
# [3] = test system: cyp19a1b - fluorescence; settings: 0-96 h; ref [3] (supplement list: Brion 2012); cited from earlier work
# [4] = test system: vtg1 - mRNA; settings: 6-96 h, cited from earlier work
# [5] = test system: carp hepatocytes; set-up: method as in PMID 10478856; settings: concentrations up to 100 µM; cited from earlier work
# [6] = test system: vitellogenin 1 (vtg1); experiment: vtg1 gene expression (qPCR) in exposed zebrafish embryos
# Experimental: as §1, §2
# [7] = test system: cyp19a1b - vtg1 mRNA; experiment: estrogenic markers considered together (cyp19a1b - vtg1 mRNA), zebrafish embryos; settings: Danio rerio, read-out: EC50 (cyp19a1b - vtg1 mRNA), class symbol
# Experimental: as §1, §2
structure (smiles),measurement,setting,value
"O=S1OCC2C(CO1)C1(Cl)C(Cl)=C(Cl)C2(Cl)C1(Cl)Cl (centres unmarked) [END, endosulfan]",effect on expression of cyp19a1b,[1],not affecting expression
same,pEC50,[2],7.22
same,"EC50 (cyp19a1b - fluorescence), class symbol",[3],n.e.
same,pEC50,"[4]; ref [25] (supplement list: Moon 2016), read-out: EC50 (vtg mRNA)",5.71
same,LogEC50 (vtg mRNA),"[4]; log of EC50 in μM, ref [25] (supplement list)",0.2923
same,induction of vitellogenesis in carp hepatocytes,[5],not able to induce vitellogenesis
same,FI vtg1 at the most effective concentration,"[6]; 4 µM, compared to controls, downregulation",0.35
same,pEC50,"[6]; Danio rerio, read-out: EC50 vtg1",6.48
same,LogEC50 (vtg1 mRNA),"[6]; log of EC50 in μM, 48-120 h, our study",-0.4815
same,downregulation of vtg1 expression compared to controls,[6]; most effective concentration (4 µM),more than 50%
same,pEC50,[7],< 5.40
